Data published in US20240116985A1, “STAPLED PEPTIDES AND METHODS THEREOF” (priority 2020, published 2024).
Converted amounts (≈) assume the structure as drawn. Like-named read-outs stand apart in the source and are kept apart here.

Assays:
[1] = CHI Log D procedure; assay type: physicochemical; conditions: pH 7.4, CHI Log D
[2] = biological target: T1, beta-catenin/TCF4 engagement (Homo sapiens, UniProt P35222); experiment: Nano-BRET target engagement assay (B-cat-Halo & TCF4-Luc in HEK293 cells); assay type: cell-based; conditions: read-out: NanoBRET Abs IC50
T1 construct: expressed in transfected cells; host or cells: HEK293
T1 sequence (P35222 1-781): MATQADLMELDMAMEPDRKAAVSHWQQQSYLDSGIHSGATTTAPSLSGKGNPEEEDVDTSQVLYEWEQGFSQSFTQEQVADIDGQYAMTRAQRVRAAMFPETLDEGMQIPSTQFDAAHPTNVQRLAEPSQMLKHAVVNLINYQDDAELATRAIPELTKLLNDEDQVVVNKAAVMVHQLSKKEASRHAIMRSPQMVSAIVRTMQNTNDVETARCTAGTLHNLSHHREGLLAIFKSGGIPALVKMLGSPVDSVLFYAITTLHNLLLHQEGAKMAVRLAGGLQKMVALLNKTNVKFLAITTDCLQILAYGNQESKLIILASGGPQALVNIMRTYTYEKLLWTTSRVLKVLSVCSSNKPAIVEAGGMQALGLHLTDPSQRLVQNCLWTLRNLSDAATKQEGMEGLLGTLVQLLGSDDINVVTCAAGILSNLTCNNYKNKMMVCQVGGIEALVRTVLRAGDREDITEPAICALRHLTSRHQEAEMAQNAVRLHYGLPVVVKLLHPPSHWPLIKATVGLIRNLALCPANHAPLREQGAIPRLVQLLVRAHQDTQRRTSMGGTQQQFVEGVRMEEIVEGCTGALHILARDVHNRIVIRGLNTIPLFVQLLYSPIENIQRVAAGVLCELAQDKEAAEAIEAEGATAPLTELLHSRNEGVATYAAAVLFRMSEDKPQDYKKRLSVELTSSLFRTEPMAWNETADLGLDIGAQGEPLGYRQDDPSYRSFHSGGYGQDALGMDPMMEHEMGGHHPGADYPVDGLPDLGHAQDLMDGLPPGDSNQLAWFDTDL

[3] = biological target: T2, full-length beta-Catenin (Uniprot ID P35222) (Homo sapiens, UniProt P35222); experiment: Fluorescence polarization IC50 (beta-catenin / 5FAM-TCF4 10-53 competition); assay type: binding; conditions: read-out: beta-Catenin FP IC50
T2 construct: 10 nM full-length beta-Catenin (Uniprot ID P35222)
T2 sequence (P35222 1-781): T1 sequence (P35222 1-781)

[4] = Solubility in PBS; assay type: physicochemical
Summary of the method: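 Steps: ultracentrifuge the peptide PBS solution, inject the supernatant on HPLC, inject a 50 μM peptide DMSO solution as reference, then calculate solubility as area ratio (PBS/DMSO) × 50 uM.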

Compound	chromatographic logD [1]	IC50 [2]	IC50 [3]	Solubility [4]	Solubility ([4]; Solubility (uM))
CC(=O)N1CCC[C@]12CC=CCCCC1(CCCC=CCCCOC(=O)N3CC[C@@](C(=O)N[C@@H](Cc4ccsc4)C(=O)N[C@@H](Cc4csc5ccccc45)C(=O)N[C@@H](Cc4c[nH]cn4)C(N)=O)(C3)NC(=O)[C@H](Cc3ccccc3)NC(=O)[C@H](Cc3ccccc3)NC(=O)[C@H](C)NC(=O)[C@H](C)NC(=O)[C@H](CC(=O)O)NC(=O)[C@H](CC(=O)O)NC1=O)NC(=O)[C@H](CC(C)(C)C)NC(=O)[C@H](CC(=O)O)NC2=O (stereo partly drawn) [I-808, Ac-PL3-Asp-Npg-B5-Asp-Asp-Ala-Ala-Phe-Phe-PyrS2-3Thi-BztA-His-NH2]	2.34	4.4 µM	0.005 µM	10 µM (≈ 19.6 µg/mL)	
CC(=O)N1CCC[C@]12CC=CCCCC1(CCCC=CCCCOC(=O)N3CC[C@@](C(=O)N[C@@H](Cc4ccsc4)C(=O)N[C@@H](Cc4csc5ccccc45)C(=O)N[C@@H](Cc4c[nH]cn4)C(N)=O)(C3)NC(=O)[C@H]([C@@H](C)O)NC(=O)[C@H](Cc3ccccc3)NC(=O)[C@H](C)NC(=O)[C@H](C)NC(=O)[C@H](CC(=O)O)NC(=O)[C@H](CC(=O)O)NC1=O)NC(=O)[C@H](CC(C)(C)C)NC(=O)[C@H](CC(=O)O)NC2=O (stereo partly drawn) [I-810, Ac-PL3-Asp-Npg-B5-Asp-Asp-Ala-Ala-Phe-Thr-PyrS2-3Thi-BztA-His-NH2]	2.17	18 µM	0.006 µM		39 µM (≈ 74.7 µg/mL)

Second part, the molecule after the results:

chromatographic logD [1]	IC50 [2]	IC50 [3]	Solubility [4]	Solubility ([4]; Solubility (uM))	Compound
1.68	> 20 µM	0.032 µM		43 µM (≈ 82.5 µg/mL)	CC(=O)N1CCC[C@]12CC=CCCCC1(CCCC=CCCCOC(=O)N3CC[C@@](C(=O)N[C@@H](Cc4cscn4)C(=O)N[C@@H](Cc4csc5ccccc45)C(=O)N[C@@H](CCC(N)=O)C(N)=O)(C3)NC(=O)[C@H](CC(N)=O)NC(=O)[C@H](Cc3ccccc3)NC(=O)[C@H](C)NC(=O)[C@H](C)NC(=O)[C@H](CC(=O)O)NC(=O)[C@H](CC(=O)O)NC1=O)NC(=O)[C@H](CC(C)(C)C)NC(=O)[C@H](CC(=O)O)NC2=O (stereo partly drawn) [I-811, Ac-PL3-Asp-Npg-B5-Asp-Asp-Ala-Ala-Phe-Asn-PyrS2-4Thz-BztA-Gln-NH2]
2.17	20.9 µM	0.007 µM		28 µM (≈ 54 µg/mL)	CC(=O)N1CCC[C@]12CC=CCCCC1(CCCC=CCCCOC(=O)N3CC[C@@](C(=O)N[C@@H](Cc4ccsc4)C(=O)N[C@@H](Cc4csc5ccccc45)C(=O)N[C@H](Cc4c[nH]cn4)C(N)=O)(C3)NC(=O)[C@H](CC(N)=O)NC(=O)[C@H](Cc3ccccc3)NC(=O)[C@H](C)NC(=O)[C@H](C)NC(=O)[C@H](CC(=O)O)NC(=O)[C@H](CC(=O)O)NC1=O)NC(=O)[C@H](CC(C)(C)C)NC(=O)[C@H](CC(=O)O)NC2=O (stereo partly drawn) [I-813, Ac-PL3-Asp-Npg-B5-Asp-Asp-Ala-Ala-Phe-Asn-PyrS2-3Thi-BztA-dHis-NH2]
2.05	13.7 µM	0.005 µM		46 µM (≈ 87.6 µg/mL)	CC(=O)N1CCC[C@]12CC=CCCCC1(CCCC=CCCCOC(=O)N3CC[C@@](C(=O)N[C@@H](Cc4ccsc4)C(=O)N[C@@H](Cc4csc5ccccc45)C(=O)N[C@@H](CC(N)=O)C(N)=O)(C3)NC(=O)[C@H](CC(N)=O)NC(=O)[C@H](Cc3ccccc3)NC(=O)[C@H](C)NC(=O)[C@H](C)NC(=O)[C@H](CC(=O)O)NC(=O)[C@H](CC(=O)O)NC1=O)NC(=O)[C@H](CC(C)(C)C)NC(=O)[C@H](CC(=O)O)NC2=O (stereo partly drawn) [I-816, Ac-PL3-Asp-Npg-B5-Asp-Asp-Ala-Ala-Phe-Asn-PyrS2-3Thi-BztA-Asn-NH2]
